Results as given in US6806292B2, “Substituted imide derivatives” (Bayer Aktiengesellschaft, priority 2000, dated 2004).

Key:
[1] = log P determination by HPLC (EEC directive 79/831 Annex V.A8); assay type: physicochemical; conditions: pH 2.3; HPLC gradient method, acetonitrile/0.1% aqueous phosphoric acid
Procedure: [The log P values were determined in accordance with EEC directive 79/831 Annex V.A8 by HPLC (gradient method, acetonitrile/0.1% aqueous phosphoric acid)]

Meloidogyne incognita = test: Meloidogyne test; assay type: in vivo; conditions: 20 ppm, after 2 weeks, lettuce in sand
Procedure: To produce a suitable preparation of active compound, 1 part by weight of active compound is mixed with the stated amounts of solvent and emulsifier, and the concentrate is diluted with water to the desired concentration.
Containers are filled with sand, solution of active compound, Meloidogyne incognita egg/larvae suspension and lettuce seeds. The lettuce seeds germinate and the plants develop. Galls form on the roots.
After 2 weeks, the nematicidal activity is determined by the gall formation in %. 100% means that no galls have been found; 0% activity means that the number of galls on the treated plants corresponds to that of the untreated control.

C/C(=N\C#N)NC(C)C1CCCCC1 (stereo not drawn) [Example 1, R-(−)-N-cyano-N′-cyclohexyl-eth-1-yl-ethane-imid-amide]
chromatographic logP [1]: 2.19 | kill (nematicidal activity by gall formation) (Meloidogyne incognita): 100%
